Consider 89 compounds from a melting point compilation (Tetko et al.; mined from patent text by program, amines drawn as free bases though some values may be those of a salt).

On to `CC(C)c1ccc(C(C)C)n1NC1=NCCN1`, for which the melting point (commonly the temperature of the solid-liquid transition) is 230 to 232 °C. `CC(C)CCOc1cc(C(=O)O)cc([N+](=O)[O-])c1`: the melting point came out at 142 °C.

`Cc1nc2c3c(ccc2n1C)[C@H](O)C[C@H](c1ccccc1)O3` (relative stereo) displayed a melting point of 228 to 229 °C.

Turning to `O=C(NCCC[C@H]1OC[C@H](c2cccc3cc(OCC4CC4)ccc32)CO1)OCC(F)(F)F`, the melting point lay in the range of 105 to 107 °C. In the case of `c1csc(N2CCN(Cc3ccc4sccc4c3)CC2)n1`, the melting point lay within 80 to 82 °C.

The compound `O=[N+]([O-])c1cccc(OCc2ccccc2)c1[N+](=O)[O-]` displayed a melting point of 100 to 101 °C. In the case of `Cc1ccccc1NC(=O)C(Cl)Cl` it was 192 to 195 °C; in that of `CC(C)(C)NC(=O)Nc1nc2nc(NCCCN3CCOCC3)ncc2cc1-c1c(Cl)cccc1Cl`, 236 to 240 °C; in that of `CC(=O)Nc1nnc(S(=O)(=O)Cc2ccccc2)o1`, 245 to 248 °C.

Consider `CCN(CC)CCOc1ccc(Nc2ncc3c(n2)N(c2cccc(CCN)c2)C(=O)N(c2ccc(Cl)cc2Cl)C3)cc1`, for which the melting point was found to be 108 °C.

The compound `Cc1cc(C(CC2CCCC2)c2ccc(S(C)(=O)=O)cc2)[nH]c1C(=O)O` (centres undefined) displayed a melting point of 127 °C. In the case of `NS(=O)(=O)c1ccc2c(c1)S(=O)(=O)NC(C1CCCCC1)N2` (centres undefined) it was 252 to 254 °C; in that of `CCOC(=O)C(=C(NC)NCc1ccc(Cl)nc1)[N+](=O)[O-]`, 231 to 233 °C; in that of `NC(=O)Cc1c(N)cc(Br)cc1OCc1ccccc1`, 185 °C. In the case of `O=C(CC(=O)C(F)F)c1cccs1`, the melting point was in the range of 78 to 80 °C.

`O=C(N[C@H](Cc1ccc(C(F)(F)F)cc1)[C@@H](O)c1cccc2ccccc12)c1cccc2ccccc12` (racemic) showed a melting point of 217 to 218 °C. In the case of `O=C(O)CC(CC(=O)O)c1cc(C(=O)O)n(CC(=O)O)c1` it was 130 °C; in that of `CC(NC(=O)c1ccc(-c2ccccc2)cc1)C(=O)O` (centres undefined), 160 °C; in that of `O=C(CCN1CCOCC1)Nc1cc(-c2nnc(CCc3cccc(F)c3)o2)ccn1`, 149 to 150 °C. The result for `COc1cc(Cl)c(CO)c(Cl)c1` reads 71 to 72 °C. For the compound `COc1cc2c(cc1C(F)(F)F)c(C(=O)Nc1cccnc1)cn2C`, the melting point was more than 250 °C. In the case of `Cc1cc(=O)c(C(=O)Nc2nnc(C)s2)c(C)o1` it was 203 to 204 °C. In the case of `Cn1cc(Br)cc(Nc2cc3c(cn2)CCN(C(=O)OC(C)(C)C)C3)c1=O` it was 126 to 128 °C.

For the compound `Cn1nnc2cc(C(=O)NC3CCCn4c3nc(-c3ccncc3)cc4=O)ccc21` (racemic), the melting point lay in the range of 267 to 269 °C. The compound `COC(=O)c1cc2cc(O)ccc2o1` had a melting point of 132 to 133 °C. The result for `Cc1cccc(-c2n[nH]cc2-c2ccc(F)c(-c3cn(C)cn3)c2)n1` reads 168 to 169 °C; that for `COc1ccc(-c2cc(C(=O)Nc3cccc(F)n3)c3ccccc3n2)cc1OC`, 225 to 226 °C; that for `Cc1cc(=O)c(-c2ccc(F)cc2)c(C)o1`, 114 to 115 °C.

As to `COc1cc(OCCN2CCCC2)c2c(=O)[nH]c(-c3cc(C)nc(C)c3)nc2c1`, the melting point is 190 to 191 °C. The result for `Nc1ccc(C2=NN3C(=O)OCC3Cc3cc4c(cc32)OCO4)cc1` (centres undefined) reads 173 to 175 °C; that for `COC(=O)C(OC)(c1ccccc1)c1nc(OC)cc(OC)n1` (centres undefined), 72 to 76 °C. The result for `N#Cc1ccc(N2CCC(CC(=O)O)CC2)c2ccccc12` reads 195 to 196 °C.

Turning to `CN(CCOc1ccc(CC(Sc2ccccc2)C(=O)O)cc1)c1nc2ccccc2o1` (centres undefined), the melting point was 144 to 147 °C. In the case of `O=C(Cn1ncc2cc(/C=C/C(c3cc(Cl)c(F)c(Cl)c3)C(F)(F)F)ccc2c1=O)NCC(F)(F)F` (centres undefined) it was 172 to 175 °C; in that of `CCCCc1nc(Cl)c(C(=O)N2CCCC2)n1Cc1ccc2oc(-c3ccccc3-c3nnn[nH]3)c(Br)c2c1`, 120 to 122 °C. For `COc1ccc(Cn2ncnc2CN2C(=O)c3ccccc3C2=O)cc1`, the melting point is 167 to 172 °C. The result for `N#Cc1cc2n(c1)CCc1ccccc1C2=O` reads 146 to 147 °C; that for `C=CCC1(C(=O)NCC)c2ccccc2Oc2ccccc21`, 111 to 112 °C.

Compound `CC(C(=O)O)c1ccc(CC2CCCCC2O)c(Cl)c1` (centres undefined) came in with a melting point of 123 to 127 °C. The result for `O=C(NC(c1ccccc1)c1cc2ccncc2[nH]1)c1ccncc1` (centres undefined) reads 182 to 192 °C. In the case of `CCCCCCCCCCCCCc1cc(C(=O)O)c[nH]1` it was 82 to 84 °C. As to `CCCCCCCCC#CCC#CCC#CCCCC(=O)O`, the melting point fell in the range of 69 to 70 °C. The result for `CCOC(=O)CCC1(CCC(=O)OCC)CCC(=O)N1` reads 44 to 46 °C. In turn, `NC(=O)c1[nH]cnc1OC(=O)C(=Cc1ccccc1)c1ccccc1` registered a melting point of 208 °C. In the case of `CC(C)COC(=O)N1CCN(c2nc3cccccc-3n2)CC1` it was 130 to 133 °C; in that of `O=C(c1ccc([N+](=O)[O-])cc1)N1CCCCc2sc(Cl)c(Cl)c21`, 140 to 142 °C. The result for `Clc1ccc(Nc2nc3ccccc3c3[nH]c(C4CCCCCC4)nc23)cc1Cl` reads 236 to 238 °C. In the case of `CC(C)n1c(=O)n(C)c2cc(-c3ncc(C(F)(F)F)cc3Cl)ccc21` it was 108 to 109 °C; in that of `O=C(c1cccc(C(F)(F)F)c1)N1CCc2cc(S(=O)(=O)N3CC(c4ccccc4)NC3=O)ccc21` (centres undefined), 119 °C. As for `CN1C(=O)C(=Cc2cc(C(C)(C)C)c(O)c(C(C)(C)C)c2)SC1O` (centres undefined), the melting point is 165 to 170 °C. The result for `Cc1c(CN2CCc3c(c4cccc(F)c4n3C)C2=O)ncn1S(=O)(=O)N(C)C` reads 162 to 166 °C. In the case of `O=C(COc1ccc(C(=O)C(=O)O)cc1)NC1CCCCCCC1` it was 139 to 140 °C. The compound `O=C(O)CCCc1nc2c(F)c(F)cc(F)c2s1` came in with a melting point of 113 to 114 °C. In the case of `COc1ccn2nc(-c3ccccc3)c(-c3ccc(=O)[nH]n3)c2c1` it was 246 to 247 °C; in that of `O=C(CCC1CCCCC1)C1=C(O)COC1=O`, 75 to 78 °C; in that of `COC(=O)c1c(C)nc2c(c1N)c1ccccc1n2Cc1ccc(OC)cc1`, 142 to 145 °C. In the case of `Nc1cc(-n2cccc2)ccc1Nc1cccc(-c2ccccn2)c1` it was 135 to 140 °C; in that of `COC(=O)c1ccc(-c2nnc(-c3ccc(C(C)(C)C)cc3)o2)cc1`, 210 to 211 °C. Turning to `Cc1nnc(-c2ccccc2)n1-c1ccccc1`, the melting point was 163 °C. In the case of `NC(=S)N1CCCCc2cccnc21` it was 121 °C. The result for `O=S(=O)(C(=CN=c1ccc(Br)cn1Cc1ccccc1)S(=O)(=O)c1ccccc1)c1ccccc1` reads 216 to 217 °C; that for `CCN(CC)c1ccc2cc(C=CC(=O)c3c(N(CC)CC)c4ccccc4oc3=O)oc2c1`, 169 to 171 °C. The result for `CN1CCC(CC(=O)N2c3ccccc3NC(=O)c3ccccc32)CC1` reads more than 95 °C. `CCOC(=O)Cc1cccc(C(=O)c2ccccc2)c1NC(C)=O` came in with a melting point of 133 to 134 °C. In the case of `c1ccc(C2OC3(CCNCC3)c3ccccc32)cc1` (centres undefined) it was 99 to 107 °C. The result for `CCNc1ncc2ccc(=O)n(-c3ccccc3)c2n1` reads 193 to 195 °C. In the case of `Cc1ccccc1C(=O)Nc1ccc(C(=O)N2CCCC(N(C)CC#N)c3ccccc32)cc1` (centres undefined) it was 227 to 228 °C; in that of `Cc1c(C(=O)Nc2ccc(N3CCC(O)CC3)c(C#N)c2)c2cc(F)ccc2n1CC(=O)O`, more than 250 °C; in that of `COc1nc(NC(=O)NS(=O)(=O)Nc2nc(C)cc(C)n2)nc(OC)n1`, 172 °C.

Turning to `CCc1cc(C(F)(C(F)(F)F)C(F)(F)F)cc(C)c1NC(=O)c1cccc(N)c1`, the melting point lay in the range of 143 to 145 °C. `O=C1CCC(c2ccc(F)cc2)c2ccccc2N1` (centres undefined): the melting point fell in the range of 209 to 212 °C.

In turn, `Cc1ccc(S(=O)(=O)N2[C@H](CCCc3nnnn3C)CC[C@@H]2c2ccc(F)cc2)cc1` (racemic) yielded a melting point of 153 °C. In the case of `COc1ccccc1OCC(O)CN1CCC(N2CCCNC2=O)CC1` (centres undefined) it was 130 to 133 °C. Compound `CC(C)Cc1ccc(C(C)C(=O)NO)cc1` (centres undefined) came in with a melting point of 119 to 121 °C. The result for `O=C1Nc2cccnc2N(C(=O)CCN2CCNCC2)c2ccccc21` reads 280 to 282 °C; that for `O=C(O)Cc1c(-c2ccccc2)nn(-c2ccccc2Cl)c1-c1ccccc1`, 191 to 193 °C; that for `CCCCOc1c(CNC(=O)OC(C)(C)C)n(CC(C)C)c(=O)c2ccc(-c3ccccn3)cc12`, 123 to 124 °C. In the case of `COc1ccc(-c2ccc(=O)[nH]n2)cc1OC1CC2CCC1C2` (centres undefined) it was 188 to 189 °C; in that of `CC(Cc1cc([N+](=O)[O-])cc2ccoc12)NC(=O)OC(C)(C)C` (centres undefined), 131 to 132 °C. The result for `Cc1cc(-c2cccc(C(F)(F)F)c2)nn2cnnc12` reads 181 to 183 °C; that for `CCOC(=O)c1ccc2c(S)cccn2c1=O`, 111 to 113 °C; that for `CSC(=NC#N)N1CCc2nc(N)sc2C1`, 152 to 155 °C. For the compound `NS(=O)(=O)c1ccccc1-c1ccno1`, the melting point was in the range of 132 to 135 °C. In the case of `Cc1ccc2nc(C)c(CCN3CCN(c4cccc(Cl)c4)CC3)c(=O)n2c1` it was 127 to 128 °C; in that of `CC(=O)O[C@@H]1CN2C(=O)N(c3cc(Cl)cc(Cl)c3)C(=O)[C@]2(Cc2ccc(Br)cc2)C1`, 150 °C. As for `CC1(C)[C@@H]2CC3[C@H](C(=O)O)[C@@]3(C)C[C@@H]21` (some centres undefined), the melting point is 86 °C. `O=C(O)CCC(=O)N1CCCc2cc(S(=O)(=O)N3CCN(c4cccc(Cl)c4)CC3)ccc21` returned a melting point of 135 to 136 °C. The result for `CC(C)CC(NC(=O)c1ccc(NCc2c[nH]cn2)cc1-c1ccccc1)C(=O)O` (centres undefined) reads 114 to 116 °C; that for `CCC(C)CNC(=O)c1cc(NC)cc(C(=O)NCC(C)CC)c1` (centres undefined), 160 to 161 °C.
